Assay results reported in US20210052701A1, “Methods of Treating Vascular Leakage Using CXCL12 Peptides” (The Medical College of Wisconsin, Inc., priority 2018, published 2021).
Where no end group is shown, it is not given here. [ ]: non-standard residue; d: D form. sY = N[C@@H](Cc1ccc(OS(=O)(=O)O)cc1)C(=O)O

Legend:
CXCL12 = CXCL12 (Homo sapiens, UniProt P48061); assay: CXCL12 dimerization (biophysical measurements); assay type: binding; conditions: sulfopeptide bound to the sTyr21 recognition site
Chain of CXCL12 (P48061 22-89 limits assumed): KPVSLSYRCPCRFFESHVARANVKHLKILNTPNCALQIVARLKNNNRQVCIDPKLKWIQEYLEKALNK
Source text: The present invention provides a constitutively monomeric CXCL12 variant (CXCL121) engineered to resist peptide-induced dimerization by maintaining steric repulsion of the chemokine helix. Six short CXCR4 peptides, centered on Tyr7, Tyr12, or Tyr21, were synthesized to study the contributions of individual sulfotyrosines in peptide binding and specificity. Peptides were titrated into CXCL12WT, CXCL122 (a constitutively dimeric variant of CXCL12 containing L36C/A65C mutations), or CXCL121 and the interaction was monitored by 2D NMR. While sulfopeptides encompassing sTyr7 and sTyr12 interacted nonspecifically, an […] Tyr7 peptide induced a new set of chemical shift perturbations in the CXCL12 monomer that were also observed upon binding of the intact CXCR41-38 N-terminal domain.

hPPAEC [1] = assay: In vitro vascular permeability assay (FITC-dextran), hPPAEC monolayer, CXCR4/ACKR3 ligands without thrombin; assay type: cell-based, human; conditions: 50 nM ligand for 10 min, then FITC-dextran; no thrombin
Protocol: FIGS. 1A-1B show expression of CXCR4, ACKR3 and CXCR4:ACKR3 heteromers on hPPAEC and effects of CXCR4/ACKR3 ligands on hPPAEC monolayer permeability. (A) Detection of CXCR4, ACKR3 and CXCR4:ACKR3 heteromers on hPPAEC by PLA. Typical PLA images for the detection of individual receptors and CXCR4:ACKR3 heteromers. Images show merged PLA/40,6-diamidino-2-phenylindole dihydrochloride (DAPI) signals. Ctrl: Omission of one secondary antibody. (B) hPPAEC were grown to a confluent monolayer on collagen-coated permeable membranes. Cells were then exposed to vehicle or 50 nM of CXCR4/ACKR3 ligands for 10 minutes, as indicated, followed by the addition of FITC-dextran. Endothelial permeability was assessed by measuring the amount of FITC-dextran that permeated through the cell monolayer. N=3 in quadruplicate. No cells: 100% permeability, open squares. RFU: Relative fluorescence units. *: p<0.05 vs. vehicle (2-way ANOVA/Bonferroni's multiple comparison post hoc test).
Cells and cell lines—Human primary pulmonary artery endothelial cells (hPPAEC) (ATCC, PCS-100-022) and the human lung microvascular endothelial cell line HULEC-5a (ATCC, CRL-3244) were cultured in vascular cell basal medium (ATCC, PCS-100-030) with endothelial cell growth kit-VEGF (ATCC, PCS-100-041). The HTLA cell line, a HEK293 cell line stably expressing a tTA-dependent luciferase reporter and a β-arrestin2-TEV fusion gene, was generously provided by the laboratory of Dr. Bryan Roth and maintained in high glucose Dulbecco's Modified Eagle's Medium supplemented with 10% (vol/vol) FBS, 1× non-essential amino acids, 100 U/mL penicillin, 100 μg/mL streptomycin, 50 μg/mL hygromycin B, and 2 μg/mL puromycin. All cells were cultured at 37° C., 5% CO2 in a humidified atmosphere.
(§1) In vitro vascular permeability assays—Permeability assays were obtained from Millipore (ECM642) and performed as per manufacturer's instructions. In brief, 96-well collagen-coated permeability assay plates were pre-hydrated for 15 min, 5×10^5 cells were seeded on each well and grown to a confluent monolayer for 48 hours. Fluorescein isothiocyanate (FITC)-dextran (20 μg/mL) was then added on top of the monolayer and the amount of FITC-dextran that permeated through the monolayer was quantified by measuring fluorescence in a Synergy 2 Multi-mode Microplate Reader (BioTek, Winooski, Vt.) at various time points over a 255 min time period.

hPPAEC [2] = assay: Effects of CXCR4 agonists / CXCL12 variants on thrombin-induced impairment of hPPAEC monolayer permeability; assay type: cell-based, human
Protocol: FIGS. 3A-3D show effects of CXCL12 and ubiquitin on thrombin-induced impairment of hPPAEC monolayer permeability. hPPAEC were grown to a confluent monolayer on collagen-coated permeable membranes. (A) hPPAEC were pre-treated with vehicle, 100 nM of CXCL12 or ubiquitin for 10 minutes, as indicated, and then exposed to thrombin (50 nM), followed by the addition of FITC-dextran. Vehicle: no thrombin. Endothelial permeability was assessed by measuring the amount of FITC-dextran that permeated through the cell monolayer. No cells: 100% permeability (open circles). RFU: Relative fluorescence units. N=3 in quadruplicate. *: p<0.05 vs. vehicle/thrombin. (B-D) hPPAEC were exposed to 35 nM of thrombin or vehicle. After 10 min, thrombin-exposed cells were treated with vehicle, CXCL12 (50 nM) and/or AMD3100 (10 μM) (B), with vehicle, ubiquitin (50 nM) and/or AMD3100 (10 μM) (C) or with various concentrations of ubiquitin (D) followed by the addition of FITC-dextran. The experimental conditions are indicated. Endothelial permeability was assessed by measuring the amount of FITC-dextran that permeated through the cell monolayer. RFU: Relative fluorescence units. N=3 in quadruplicate. *: p<0.05 vs. thrombin/vehicle (2-way ANOVA/Bonferroni's multiple comparison post hoc test).
(§2) FIGS. 7A-7D show dose-dependent effects of CXCL12α/β, CXCL12 (3-68) and CXCL12 mutants K27A/R41A/R47A, R47E and S-S4V on thrombin-induced impairment of hPPAEC monolayer permeability. hPPAEC cells were grown to a confluent monolayer on collagen-coated permeable membranes. hPPAEC were then exposed to 35 nM of thrombin. After 10 min, thrombin-exposed cells were treated with vehicle or 50 nM (A), 5 nM (B), 0.5 nM (C) or 0.05 nM (D) of the various proteins, as indicated. In (D) 5 nM CXCL12a was used as a positive control. N=3 in quadruplicate.
as §2, with “8A-8D” for “7A-7D”, “CXCL12α, CXCL121” for “CXCL12α/β, CXCL12 (3-68)”, “CXCL122” for “CXCL12 mutants K27A/R41A/R47A, R47E and S-S4V”, “CXCL12α” for “CXCL12a”
FIGS. 9A-9B show inhibition of thrombin-induced hyper-permeability of hPPAEC by CXCL12/CXCL12 variants. % inhibition: % inhibition of thrombin-induced hyperpermeability. Data from FIGS. 7 and 8 at t=255 min. N=3 in quadruplicate. *: p<0.05 vs. CXCL12a (2-way ANOVA/Bonferroni's multiple comparison post hoc test).
as §1

HULEC-5a = assay: Effects of CXCL12 and ubiquitin on thrombin-induced impairment of HULEC-5a monolayer permeability; assay type: cell-based, human; conditions: thrombin 50 nM, after 10 min 50 nM ligand
Protocol: FIGS. 4A-4D show effects of CXCL12 and ubiquitin on thrombin-induced impairment of HULEC-5a monolayer permeability. (A) HULEC-5a were grown to a confluent monolayer on collagen-coated permeable membranes and then exposed to different concentration of thrombin for 10 min, followed by the addition of FITC-dextran. Endothelial permeability was assessed by measuring the amount of FITC-dextran that permeated through the cell monolayer. No cells: 100% permeability. RFU: Relative fluorescence units. N=3 in quadruplicate. (B) Dose-response curves for thrombin-induced permeability, data from A. 100% permeability=permeability in the absence of HULEC-5a. Open squares: Permeability at t=55 min. Light grey squares: Permeability at t=135 min. Dark grey squares: Permeability at t=255 min. […] Endothelial permeability was assessed by measuring the amount of FITC-dextran that permeated through the cell monolayer. RFU: Relative fluorescence units. […]
as §1, with “In brief, 96-well collagen-coated permeability assay plates were pre-hydrated for 15 min, 5×10^5 cells were seeded on each well and grown to a confluent monolayer for 48 hours.” left out

Row | increase of the CXCL12 dimerization affinity (CXCL12) | Substance | effect on hPPAEC monolayer permeability (hPPAEC [1]) | effect of pre-treatment on thrombin-induced hyper-permeability of hPPAEC (hPPAEC [2]; 100 nM for 10 min, then thrombin (50 nM)) | effect on thrombin-induced permeability of hPPAEC when added after thrombin (hPPAEC [2]; thrombin 35 nM, after 10 min CXCL12 or ubiquitin 50 nM, AMD3100 10 μM) | effect on thrombin-induced hyper-permeability at various concentrations (hPPAEC [2]; thrombin 35 nM, ubiquitin 30 nM-3 μM after thrombin) | effect on thrombin-induced hyper-permeability, ubiquitin plus AMD3100 (hPPAEC [2]; thrombin 35 nM, ubiquitin 50 nM plus AMD3100 10 μM) | effect on thrombin-mediated impairment of HULEC-5a barrier function when added after thrombin (HULEC-5a)
1 | eight-fold | sTyr21 sulfopeptide: short CXCR4 peptide centered on sulfated Tyr21 (SGD[sY]DSM) |  |  |  |  |  | 
2 |  | ubiquitin | did not affect hPPAEC permeability | significantly attenuated thrombin-induced hyper-permeability of hPPAEC | did not modulate thrombin-induced hyper-permeability | did not attenuate thrombin-induced hyper-permeability | did not modulate thrombin-induced hyper-permeability | significantly reduced thrombin-mediated impairment of endothelial cell barrier function
